# Measured values as given in the supplement of paper PMC10307832.
# Tests used:
# Assay in all cases: relative viability (nuclei count vs DMSO), 5 days (fraction); higher = more cells survive
# Afatinib + Navitoclax = compound: CN(C)C/C=C/C(=O)Nc1cc2c(Nc3ccc(F)c(Cl)c3)ncnc2cc1O[C@H]1CCOC1 [Afatinib] + CC1(C)CCC(c2ccc(Cl)cc2)=C(CN2CCN(c3ccc(C(=O)NS(=O)(=O)c4ccc(N[C@H](CCN5CCOCC5)CSc5ccccc5)c(S(=O)(=O)C(F)(F)F)c4)cc3)CC2)C1 [Navitoclax] (partner 0.5 µM)
# How it was run: (§1)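 Relative viability is defined as nuclei in treated wells over nuclei in vehicle wells. Duplicate plates were run and medians reported. Lung cancer cell lines in 1536-well plates were dosed by pin tool one day after seeding, with one drug or with a fixed anchor-drug dose plus five library-drug doses (not always all listed) in √10 steps, and nuclei were counted after 5 days.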
# Afatinib + Linsitinib = compound: CN(C)C/C=C/C(=O)Nc1cc2c(Nc3ccc(F)c(Cl)c3)ncnc2cc1O[C@H]1CCOC1 [Afatinib] + C[C@]1(O)C[C@@H](c2nc(-c3ccc4ccc(-c5ccccc5)nc4c3)c3c(N)nccn32)C1 [Linsitinib] (partner 1 µM)
# How it was run: as §1
# Afatinib + Foretinib = compound: CN(C)C/C=C/C(=O)Nc1cc2c(Nc3ccc(F)c(Cl)c3)ncnc2cc1O[C@H]1CCOC1 [Afatinib] + COc1cc2c(Oc3ccc(NC(=O)C4(C(=O)Nc5ccc(F)cc5)CC4)cc3F)ccnc2cc1OCCCN1CCOCC1 [Foretinib] (partner 0.25 µM)
# How it was run: as §1
# Afatinib + Luminespib = compound: CN(C)C/C=C/C(=O)Nc1cc2c(Nc3ccc(F)c(Cl)c3)ncnc2cc1O[C@H]1CCOC1 [Afatinib] + CCNC(=O)c1noc(-c2cc(C(C)C)c(O)cc2O)c1-c1ccc(CN2CCOCC2)cc1 [Luminespib] (partner 0.01 µM)
# How it was run: as §1
Cell Line,relative viability (Afatinib + Navitoclax; first compound 0.005 µM),relative viability (Afatinib + Navitoclax; first compound 0.01581 µM),relative viability (Afatinib + Navitoclax; first compound 0.05 µM),relative viability (Afatinib + Navitoclax; first compound 0.1581 µM),relative viability (Afatinib + Navitoclax; first compound 0.5 µM),relative viability (Afatinib + Linsitinib; first compound 0.005 µM),relative viability (Afatinib + Linsitinib; first compound 0.01581 µM),relative viability (Afatinib + Linsitinib; first compound 0.05 µM),relative viability (Afatinib + Linsitinib; first compound 0.1581 µM),relative viability (Afatinib + Linsitinib; first compound 0.5 µM),relative viability (Afatinib + Foretinib; first compound 0.005 µM),relative viability (Afatinib + Foretinib; first compound 0.01581 µM),relative viability (Afatinib + Foretinib; first compound 0.05 µM),relative viability (Afatinib + Foretinib; first compound 0.1581 µM),relative viability (Afatinib + Foretinib; first compound 0.5 µM),relative viability (Afatinib + Luminespib; first compound 0.005 µM),relative viability (Afatinib + Luminespib; first compound 0.01581 µM),relative viability (Afatinib + Luminespib; first compound 0.05 µM),relative viability (Afatinib + Luminespib; first compound 0.1581 µM),relative viability (Afatinib + Luminespib; first compound 0.5 µM)
201T,1.18,1.2,1.21,1.15,1.23,1.06,0.986,0.909,0.86,0.897,1.04,1.05,1.01,0.949,1.17,1.01,1.02,1.03,0.975,1.03
A549,1.3,1.11,1.2,1.09,1.16,0.608,0.435,0.533,0.433,0.467,0.826,0.835,0.781,0.806,0.861,,,,,
A-427,1.01,0.997,1.05,0.965,0.992,1.1,1.15,1.11,1.08,1.07,0.85,1.05,1.11,0.947,1.02,1.1,0.926,1.04,0.968,0.915
ABC-1,,,,,,0.851,0.647,0.788,0.466,0.584,1.25,1.01,1.08,0.743,1.21,0.938,0.717,0.538,0.2,0.857
BEN,0.0693,0.0755,0.16,0.0734,0.0635,0.988,0.875,1.01,0.895,0.962,0.719,0.63,0.651,0.634,0.775,0.366,0.24,0.261,0.549,0.288
CAL-12T,1.32,1.12,1.47,,0.648,0.732,0.584,0.65,0.409,0.399,1.15,1.02,1.29,0.56,0.684,0.865,0.595,0.361,0.279,0.27
COR-L23,1.14,0.982,0.948,0.997,1.03,0.874,0.894,0.883,0.825,0.848,1.16,0.981,0.946,1,1.01,0.804,0.603,0.773,0.644,0.68
COR-L 105,0.444,0.373,0.315,0.293,0.26,0.418,0.207,0.403,0.258,0.278,0.385,0.448,0.37,0.287,0.318,0.678,0.476,0.445,0.307,0.272
Calu-6,0.836,0.786,0.831,0.914,0.81,0.858,0.876,1.06,0.933,0.891,0.913,0.975,0.882,0.88,0.93,,,,,
ChaGo-K-1,1.12,0.707,0.979,0.826,1.05,,,,,,0.86,0.882,0.876,0.86,0.846,0.688,0.652,0.566,0.499,0.579
EKVX,0.655,0.46,0.349,0.26,0.197,0.702,0.768,0.421,0.171,0.134,0.838,0.428,0.453,0.129,0.318,0.714,0.858,0.58,0.191,0.298
EMC-BAC-2,1.09,1.1,1.02,0.895,0.906,0.747,0.684,0.697,0.59,0.572,1.03,0.952,0.865,0.753,0.928,1.23,1.13,1.13,1.04,1.16
EPLC-272H,1.21,0.944,0.911,0.742,0.868,1.14,0.926,0.832,0.776,0.736,0.492,0.426,0.406,0.381,0.355,0.239,0.482,0.228,0.267,0.172
H3255,0.101,0.0707,0.086,0.0584,0.076,0.197,0.124,0.149,0.123,0.138,0.861,0.134,0.2,0.216,0.188,0.461,0.234,0.303,0.336,0.269
HARA,1.17,1.12,1.06,0.677,0.866,0.481,0.803,0.238,0.209,0.26,0.825,0.451,0.401,0.377,0.403,0.719,0.327,0.425,0.334,0.458
HCC-15,0.682,0.719,0.745,0.684,0.686,0.845,0.894,0.849,0.854,0.788,1.04,1.15,1.08,1.07,0.988,0.352,0.56,0.313,0.48,0.34
HCC-44,1.01,1.01,1.02,0.899,1.13,0.63,0.659,0.702,0.593,0.669,,,,,,0.957,1.11,1.13,1.17,1.26
